US10118901B2 (priority 2013, dated 2018)

Tests used:
60 cancer cell lines = experiment: NCI-60 DTP human tumor cell line screen at 10 μM, whole panel; type: cell-based; settings: for Growth %, Median: 10 μM single dose, median over cell lines; for mean growth percent in the 60 cancer cell lines: single dose of about 10 μM
Experimental: (§1) NL-101 and CY-102 was sent to U.S. National Cancer Institute (NCI) for NCI 60-cell line screening using a single compound dose (10 μM).
The human tumor cell lines of the cancer screening panel were grown in RPMI 1640 medium containing 5% fetal bovine serum (5% FBS) and 2 mM L-glutamine. For a typical screening experiment, cells were inoculated into 96-well microtiter plates in 100 μL, at plating densities ranging from 5,000 to 40,000 cells/well depending on the doubling time of individual cell lines. After cell inoculation, the microtiter plates were incubated at 37° C., 5% CO2, 95% air, and 100% relative humidity for 24 h prior to addition of experimental compounds. After 24 hr, two plates of each cell line were fixed in situ with TCA, to represent a measurement of the cell population for each cell line at the time of drug addition (Tz). Experimental drugs were solubilized in dimethyl sulfoxide at 400-fold the desired final maximum test concentration and stored frozen prior to use. At the time of drug addition, an aliquot of frozen concentrate was thawed and diluted to twice the desired final maximum test concentration with complete medium containing 50 μg/ml gentamicin. Aliquots of 100 μL of these different drug dilutions were added to the appropriate microtiter wells already containing 100 μL of medium, resulting in the required final drug concentrations.
Following drug addition, the plates were incubated for an additional 48 hrs at 37° C., 5% CO2, 95% air, and 100% relative humidity. For adherent cells, the assay was terminated by the addition of cold TCA. Cells were then fixed in situ by the gentle addition of 50 μL of cold 50% (w/v) TCA (final concentration, 10% TCA) and incubated for 60 minutes at 4° C. The supernatant was discarded, and the plates were washed five times with tap water and air dried. Sulforhodamine B (SRB) solution (100 μL) at 0.4% (w/v) in 1% acetic acid was added to each well, and plates were incubated for 10 minutes at room temperature. After staining, unbound dye was removed by washing five times with 1% acetic acid and the plates were air dried. Bound stain was subsequently solubilized with 10 mM trizma base, and the absorbance was read on an automated plate reader at a wavelength of 515 nm. […]
(§2) Using the seven absorbance measurements [time zero, (Tz), control growth, (C), and test growth in the presence of drug at the 10 μM concentration levels (Ti)], percentage growth was calculated at each of the drug concentrations levels. Percentage growth inhibition was calculated as: [(Ti−Tz)/(C−Tz)]×100 for which Ti>/=Tz or [(Ti−Tz)/Tz]×100 for which Ti<Tz.

MOLT-4 = experiment: NCI-60 screen at 10 μM: MOLT-4; type: cell-based, human; settings: Leukemia MOLT-4; 10 μM single dose; 48 hrs
Experimental: as §1
(§3) The human tumor cell lines of the cancer screening panel were grown in RPMI 1640 medium containing 5% fetal bovine serum (5% FBS) and 2 mM L-glutamine. For a typical screening experiment, cells were inoculated into 96-well microtiter plates in 100 μL, at plating densities ranging from 5,000 to 40,000 cells/well depending on the doubling time of individual cell lines. After cell inoculation, the microtiter plates were incubated at 37° C., 5% CO2, 95% air, and 100% relative humidity for 24 h prior to addition of experimental compounds. […]
(§4) Following drug addition, the plates were incubated for an additional 48 hrs at 37° C., 5% CO2, 95% air, and 100% relative humidity. […] Bound stain was subsequently solubilized with 10 mM trizma base, and the absorbance was read on an automated plate reader at a wavelength of 515 nm. […]
as §2

RPMI-8226 = experiment: NCI-60 screen at 10 μM: RPMI-8226; type: cell-based, human; settings: Leukemia RPMI-8226; 10 μM single dose; 48 hrs
Experimental: as §1, §3, §4, §2

SR = experiment: NCI-60 screen at 10 μM: SR; type: cell-based, human; settings: Leukemia SR; 10 μM single dose; 48 hrs
Experimental: as §1, §3, §4, §2

NCI-H226 = experiment: NCI-60 screen at 10 μM: NCI-H226; type: cell-based, human; settings: NSCLC NCI-H226; 10 μM single dose; 48 hrs
Experimental: as §1, §3, §4, §2

HCC-2998 = experiment: NCI-60 screen at 10 μM: HCC-2998; type: cell-based, human; settings: Colon Cancer HCC-2998; 10 μM single dose; 48 hrs
Experimental: as §1, §3, §4, §2

KM12 = experiment: NCI-60 screen at 10 μM: KM12; type: cell-based, human; settings: Colon Cancer KM12; 10 μM single dose; 48 hrs
Experimental: as §1, §3, §4, §2

SW-620 = experiment: NCI-60 screen at 10 μM: SW-620; type: cell-based, human; settings: Colon Cancer SW-620; 10 μM single dose; 48 hrs
Experimental: as §1, §3, §4, §2

SNB-75 = experiment: NCI-60 screen at 10 μM: SNB-75; type: cell-based, human; settings: CNS Cancer (Glioma) SNB-75; 10 μM single dose; 48 hrs
Experimental: as §1, §3, §4, §2

U251 = experiment: NCI-60 screen at 10 μM: U251; type: cell-based, human; settings: CNS Cancer (Glioma) U251; 10 μM single dose; 48 hrs
Experimental: as §1, §3, §4, §2

MALME-3M = experiment: NCI-60 screen at 10 μM: MALME-3M; type: cell-based, human; settings: Melanoma MALME-3M; 10 μM single dose; 48 hrs
Experimental: as §1, §3, §4, §2

MDA-MB-435 = experiment: NCI-60 screen at 10 μM: MDA-MB-435; type: cell-based, human; settings: Melanoma MDA-MB-435; 10 μM single dose; 48 hrs
Experimental: as §1, §3, §4, §2

SK-MEL-28 = experiment: NCI-60 screen at 10 μM: SK-MEL-28; type: cell-based, human; settings: Melanoma SK-MEL-28; 10 μM single dose; 48 hrs
Experimental: as §1, §3, §4, §2

UACC-62 = experiment: NCI-60 screen at 10 μM: UACC-62; type: cell-based, human; settings: Melanoma UACC-62; 10 μM single dose; 48 hrs
Experimental: as §1, §3, §4, §2

IGROV1 = experiment: NCI-60 screen at 10 μM: IGROV1; type: cell-based, human; settings: Ovarian Cancer IGROV1; 10 μM single dose; 48 hrs
Experimental: as §1, §3, §4, §2

NCI/ADR-RES = experiment: NCI-60 screen at 10 μM: NCI/ADR-RES; type: cell-based, human; settings: Ovarian Cancer NCI/ADR-RES; 10 μM single dose; 48 hrs
Experimental: as §1, §3, §4, §2

SK-OV-3 = experiment: NCI-60 screen at 10 μM: SK-OV-3; type: cell-based, human; settings: Ovarian Cancer SK-OV-3; 10 μM single dose; 48 hrs
Experimental: as §1, §3, §4, §2

786-0 = experiment: NCI-60 screen at 10 μM: 786-0; type: cell-based, human; settings: Renal Cancer 786-0; 10 μM single dose; 48 hrs
Experimental: as §1, §3, §4, §2

A498 = experiment: NCI-60 screen at 10 μM: A498; type: cell-based, human; settings: Renal Cancer A498; 10 μM single dose; 48 hrs
Experimental: as §1, §3, §4, §2

ACHN = experiment: NCI-60 screen at 10 μM: ACHN; type: cell-based, human; settings: Renal Cancer ACHN; 10 μM single dose; 48 hrs
Experimental: as §1, §3, §4, §2

RXF 393 = experiment: NCI-60 screen at 10 μM: RXF 393; type: cell-based, human; settings: Renal Cancer RXF 393; 10 μM single dose; 48 hrs
Experimental: as §1, §3, §4, §2

PC-3 = experiment: NCI-60 screen at 10 μM: PC-3; type: cell-based, human; settings: Prostate Cancer PC-3; 10 μM single dose; 48 hrs
Experimental: as §1, §3, §4, §2

DU-145 = experiment: NCI-60 screen at 10 μM: DU-145; type: cell-based, human; settings: Prostate Cancer DU-145; 10 μM single dose; 48 hrs
Experimental: as §1, §3, §4, §2

T-47D = experiment: NCI-60 screen at 10 μM: T-47D; type: cell-based, human; settings: Breast Cancer T-47D; 10 μM single dose; 48 hrs
Experimental: as §1, §3, §4, §2

| Compound | Growth %, Median (60 cancer cell lines) [%] | mean growth percent in the 60 cancer cell lines (60 cancer cell lines) [%] | Growth % (MOLT-4) [%] | Growth % (RPMI-8226) [%] | Growth % (SR) [%] | Growth % (NCI-H226) [%] | Growth % (HCC-2998) [%] | Growth % (KM12) [%] | Growth % (SW-620) [%] | Growth % (SNB-75) [%] | Growth % (U251) [%] | Growth % (MALME-3M) [%] | Growth % (MDA-MB-435) [%] | Growth % (SK-MEL-28) [%] | Growth % (UACC-62) [%] | Growth % (IGROV1) [%] | Growth % (NCI/ADR-RES) [%] | Growth % (SK-OV-3) [%] | Growth % (786-0) [%] | Growth % (A498) [%] | other results |
| --- | --- | --- | --- | --- | --- | --- | --- | --- | --- | --- | --- | --- | --- | --- | --- | --- | --- | --- | --- | --- | --- |
| Cn1c(CCNCc2ccc(/C=C/C(=O)NO)cc2)nc2cc(N(CCCl)CCCl)ccc21 [CY-102] | −28.5 | −28 | 2.17 | 2.28 | 0.09 | −20.77 | −80.55 | −78.14 | 2.33 | −48.45 | −39.66 | −64.17 | −73.24 | −21.36 | −69.24 | −14.43 | 17.78 | −41.53 | −30.40 | −81.56 | Growth % (ACHN): −19.97%; Growth % (RXF 393): −35.55%; Growth % (PC-3): −1.86%; Growth % (DU-145): −16.06%; Growth % (T-47D): −27.48% |
| Cn1c(CCCCCCC(=O)NO)nc2cc(N(CCCl)CCCl)ccc21 [NL-101] | 36.35 | 36 | 18.01 | 49.23 | 29.62 | 60.27 | 86.98 | 65.79 | 30.40 | 19.79 | 35.03 | 28.59 | 49.07 | 59.32 | 12.99 | 55.99 | 77.80 | 34.40 | 19.82 | 49.70 | Growth % (ACHN): 14.30%; Growth % (RXF 393): 5.95%; Growth % (PC-3): 51.40%; Growth % (DU-145): 18.47%; Growth % (T-47D): −16.57% |
